Drawing on patent US20240400584A1, “COMPOUNDS AND METHODS FOR MODULATING SPLICING” (REMIX THERAPEUTICS INC., priority 2021, published 2024), this text covers IC50 and AC50 for 18 compounds.

Experiment [1] concerns Target C. Nature of the experiment: Gene panel canonical junction qPCR assay, Target C CJ mRNA (Table 7). It is filed as cell-based, human. The following applies: Homo sapiens, read-out: Target C CJ mRNA decrease IC50. A digest of the protocol:
(§1)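 IC50 values reflect compound concentration giving 50% reduction in canonical exon–exon junction mRNA. Cell lysates from A673 or K562 treatments were reverse-transcribed and probed by junction-spanning qPCR, normalized to a housekeeper and vehicle, then fitted to a 4-parameter logistic equation.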

The subject of experiment [2] is MYB. Nature of the experiment: Gene panel canonical junction qPCR assay, MYB CJ mRNA (Table 7). Conditions: Homo sapiens, read-out: MYB CJ mRNA decrease IC50. The class given is cell-based. In outline: as §1
Experiment [3] deals with HTT. Nature of the experiment: RT-qPCR splicing assay, HTT AJ/CJ mRNA. It is filed as cell-based, human. The following applies: Homo sapiens, A673 or K562 cells; for IC50: decrease in canonical junction mRNA; for AC50: increase in alternative junction mRNA. A digest of the protocol: (§2)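 Splicing switch scored as change in CJ and AJ isoform levels, by RT-qPCR on lysates of A673 or K562 cells dosed 24 h (top concentration 10 uM, DMSO at most 0.25%). ΔΔCt relative to DMSO wells was converted to RQ and then to percentage response.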

Experiment [4] has as its system MYB. Description: RT-qPCR splicing assay, MYB AJ/CJ mRNA. It is filed as cell-based. Conditions: Homo sapiens, A673 or K562 cells, 24 hours; for IC50: decrease in canonical junction mRNA; for AC50: increase in alternative junction mRNA. A digest of the protocol: as §2
Experiment [5] has as its system HTT. Nature of the experiment: Gene panel canonical junction qPCR assay, HTT CJ mRNA (Table 7). It is filed as cell-based, human. The following applies: Homo sapiens, read-out: HTT CJ mRNA decrease IC50. In outline:
as §1

Experiment [6] concerns SMN2. Description: Gene panel canonical junction qPCR assay, SMN2 CJ mRNA (Table 7). The class given is cell-based. Conditions: Homo sapiens, read-out: SMN2 CJ mRNA decrease IC50. A digest of the protocol: as §1

For the compound `COc1cc(-c2ccc3c(c2)COc2nc(O[C@@H]4C[C@H]5CC[C@@H](C4)N5)ncc2-3)cnn1` [Compound 298], the IC50 in experiment [1] is 1 to 10 µM; in experiment [2], 1 to 10 µM; in experiment [3] (24 h), 0.1 to 1 µM; in experiment [4], 1 to 10 µM; in experiment [5], 0.1 to 1 µM; in experiment [6], below 0.1 µM. Also, the half-maximal activity concentration (AC50) in experiment [3] (24 h) and in experiment [4] was 0.1 to 1 µM each time.

As to `COc1cc(-c2ccc3c(c2)COc2nc(OC4CC(C)(C)NC(C)(C)C4)ncc2-3)cnn1` [Compound 299], the IC50 in experiment [1] is 1 to 10 µM; in experiment [2], 1 to 10 µM; in experiment [3] (24 h), 0.1 to 1 µM; in experiment [4], 1 to 10 µM; in experiment [5], 0.1 to 1 µM; in experiment [6] it was 0.1 to 1 µM. The AC50 fell in the range of 0.1 to 1 µM in experiment [3] (24 h) and 1 to 10 µM in experiment [4].

With `CNC1CCN(c2ccc3c(n2)OCc2cc(-c4cnnc(OC)c4)ccc2-3)CC1` [Compound 300, 1-[8-(6-methoxypyridazin-4-yl)-6H-isochromeno[3,4-b]pyridin-3-yl]-N-methylpiperidin-4-amine], the IC50 was 1 to 10 µM in experiment [1]; above 10 µM in experiment [2]; 1 to 10 µM in experiment [3] (24 h); above 10 µM in experiment [4]; 1 to 10 µM in experiment [5]; 0.1 to 1 µM in experiment [6]. Besides, the values for the half-maximal activity concentration (AC50) in experiment [3] (24 h) and in experiment [4] were 1 to 10 µM and above 10 µM, respectively.

In the case of `COc1cc(-c2ccc3c(c2)COc2nc(N4CCC(NC(C)C)CC4)ccc2-3)cnn1` [Compound 301, N-isopropyl-1-[8-(6-methoxypyridazin-4-yl)-6H-isochromeno[3,4-b]pyridin-3-yl] piperidin-4-amine], the 50% inhibitory concentration (IC50) in experiment [1], in experiment [2], in experiment [3] (24 hours), in experiment [4], in experiment [5] and in experiment [6] was 1 to 10 µM each time. The half-maximal activity concentration (AC50) in experiment [3] (24 hours) lay within 0.1 to 1 µM; in experiment [4], 1 to 10 µM.

For the compound `COc1cc(-c2ccc3c(c2)COc2nc(N4CCC(NC(C)(C)C)CC4)ccc2-3)cnn1` [Compound 302], the IC50 in experiment [1], in experiment [2], in experiment [3] (24 h), in experiment [4], in experiment [5] and in experiment [6] was above 10 µM each time. Moreover, the concentration at half-maximal activity (AC50) in experiment [3] (24 h) and in experiment [4] was above 10 µM throughout.

`COc1cc(-c2ccc3c(c2)COc2nc(N4CCN[C@@H](C(C)C)C4)ccc2-3)cnn1` [Compound 303]: the concentration for half-maximal inhibition (IC50) in experiment [1] was 0.1 to 1 µM; in experiment [2] it was 0.1 to 1 µM; in experiment [3] (24 h), below 0.1 µM; in experiment [4], 0.1 to 1 µM; in experiment [5] it was below 0.1 µM; in experiment [6] it was below 0.1 µM. In addition, the AC50 in experiment [3] (24 h) and in experiment [4] was 0.1 to 1 µM throughout.

Regarding `COc1cc(-c2ccc3c(c2)COc2nc(N4CCNC(C(C)(C)C)C4)ccc2-3)cnn1` (stereo not drawn) [Compound 304], the IC50 was 0.1 to 1 µM in experiment [1]; 0.1 to 1 µM in experiment [2]; below 0.1 µM in experiment [3] (24 h); 0.1 to 1 µM in experiment [4]; below 0.1 µM in experiment [5]; below 0.1 µM in experiment [6]. Besides, the concentration at half-maximal activity (AC50) in experiment [3] (24 h) is below 0.1 µM; in experiment [4], 0.1 to 1 µM.

`COc1cc(-c2ccc3c(c2)COc2nc(N4CCC(N(C)CC5CC5)C4)ccc2-3)cnn1` (stereo not drawn) [Compound 308]: the IC50 in experiment [1] was 1 to 10 µM; in experiment [2], 1 to 10 µM; in experiment [3] (24 h), 0.1 to 1 µM; in experiment [4] it was 1 to 10 µM; in experiment [5], 0.1 to 1 µM; in experiment [6] it was 0.1 to 1 µM. Further, the AC50 in experiment [3] (24 h) and in experiment [4] was 1 to 10 µM throughout.

Consider `COc1cc(-c2ccc3c(c2)COc2nc(N4CCC(C)(NC(C)C)C4)ccc2-3)cnn1` (stereo not drawn) [Compound 309], for which the IC50 is 0.1 to 1 µM in experiment [1]; 0.1 to 1 µM in experiment [2]; below 0.1 µM in experiment [3] (24 h); 0.1 to 1 µM in experiment [4]; below 0.1 µM in experiment [5]; below 0.1 µM in experiment [6]. The concentration at half-maximal activity (AC50) in experiment [3] (24 h) is below 0.1 µM; in experiment [4] it was 0.1 to 1 µM.

As for `CCN(C)C1CCN(c2ccc3c(n2)OCc2cc(-c4cnnc(OC)c4)ccc2-3)C1` (stereo not drawn) [Compound 310], the IC50 was 1 to 10 µM in experiment [1]; 0.1 to 1 µM in experiment [2]; 0.1 to 1 µM in experiment [3] (24 h); 0.1 to 1 µM in experiment [4]; 0.1 to 1 µM in experiment [5]; 0.1 to 1 µM in experiment [6]. For the same compound, the AC50 in experiment [3] (24 h) was in the range of 0.1 to 1 µM; in experiment [4], 1 to 10 µM.

`COc1cc(-c2ccc3c(c2)COc2nc(N4CCC(N(C)C(C)C)C4)ccc2-3)cnn1` (stereo not drawn) [Compound 311]: the IC50 in experiment [1] lay in the range of 1 to 10 µM; in experiment [2], 1 to 10 µM; in experiment [3] (24 h) it was 0.1 to 1 µM; in experiment [4], 1 to 10 µM; in experiment [5], 0.1 to 1 µM; in experiment [6], 0.1 to 1 µM. For the same compound, the concentration at half-maximal activity (AC50) in experiment [3] (24 h) and in experiment [4] was 0.1 to 1 µM each time.

As for `COc1cc(-c2ccc3c(c2)COc2nc(N4CCC(N5CCC5)C4)ccc2-3)cnn1` (stereo not drawn) [Compound 312], the half-inhibitory concentration (IC50) in experiment [1] was above 10 µM; in experiment [2], 1 to 10 µM; in experiment [3] (24 h), 0.1 to 1 µM; in experiment [4] it was 1 to 10 µM; in experiment [5], 0.1 to 1 µM; in experiment [6], 0.1 to 1 µM. The AC50 in experiment [3] (24 h) and in experiment [4] was 1 to 10 µM each time.

For `CC(C)(C)NC1CCN(c2ccc3c(n2)OCc2cc(-c4c(F)cn[nH]c4=O)ccc2-3)C1` (stereo not drawn) [Compound 315, 4-{3-[3-(tert-butylamino)pyrrolidin-1-yl]-6H-isochromeno[3,4-b]pyridin-8-yl}-5-fluoro-2H-pyridazin-3-one], the half-inhibitory concentration (IC50) in experiment [1], in experiment [2], in experiment [3] (24 h), in experiment [4], in experiment [5] and in experiment [6] was above 10 µM in each case. Besides, the AC50 in experiment [3] (24 h) and in experiment [4] was above 10 µM throughout.

For the compound `COc1cc(-c2ccc3c(c2)COc2nc(N4CCC(NC(C)(C)C(C)C)C4)ccc2-3)cnn1` (stereo not drawn) [Compound 316, N-(2,3-dimethylbutan-2-yl)-1-[8-(6-methoxypyridazin-4-yl)-6H-isochromeno[3,4-b]pyridin-3-yl]pyrrolidin-3-amine], the IC50 was 0.1 to 1 µM in experiment [1]; 0.1 to 1 µM in experiment [2]; below 0.1 µM in experiment [3] (24 h); 0.1 to 1 µM in experiment [4]; below 0.1 µM in experiment [5]; below 0.1 µM in experiment [6]. The AC50 in experiment [3] (24 h) and in experiment [4] was 0.1 to 1 µM in each case.

As for `COc1cc(-c2ccc3c(c2)COc2nc(N4CCN[C@H](C(C)(C)C)C4)ccc2-3)cnn1` [Compound 317, 5-{3-[(3R)-3-tert-butylpiperazin-1-yl]-6H-isochromeno [3,4-b]pyridin-8-yl}-3-methoxypyridazine], the IC50 is 0.1 to 1 µM in experiment [1]; 0.1 to 1 µM in experiment [2]; 0.1 to 1 µM in experiment [3] (24 h); 0.1 to 1 µM in experiment [4]; 0.1 to 1 µM in experiment [5]; below 0.1 µM in experiment [6]. In addition, the AC50 in experiment [3] (24 h) and in experiment [4] was 0.1 to 1 µM throughout.

In the case of `COc1cc(-c2ccc3c(c2)COc2nc(N4CCN[C@@H](C(C)(C)C)C4)ccc2-3)cnn1` [Compound 318, 5-{3-[(3S)-3-tert-butylpiperazin-1-yl]-6H-isochromeno[3,4-b]pyridin-8-yl}-3-methoxypyridazine], the IC50 was 0.1 to 1 µM in experiment [1]; 0.1 to 1 µM in experiment [2]; below 0.1 µM in experiment [3] (24 h); 0.1 to 1 µM in experiment [4]; below 0.1 µM in experiment [5]; below 0.1 µM in experiment [6]. Moreover, the AC50 in experiment [3] (24 h) and in experiment [4] was 0.1 to 1 µM in each case.

Take `COc1cc(-c2ccc3c(c2)COc2nc(N4CCC(N(C)C5CC5)C4)ccc2-3)cnn1` (stereo not drawn) [Compound 320]: the IC50 is 1 to 10 µM in experiment [1]; above 10 µM in experiment [2]; 1 to 10 µM in experiment [3] (24 h); above 10 µM in experiment [4]; 1 to 10 µM in experiment [5]; 0.1 to 1 µM in experiment [6]. Moreover, the AC50 in experiment [3] (24 h) and in experiment [4] was 1 to 10 µM throughout.

`CCN(CC)C1CCN(c2ccc3c(n2)OCc2cc(-c4cnnc(OC)c4)ccc2-3)C1` (stereo not drawn) [Compound 321]: the IC50 lay within 1 to 10 µM in experiment [1]; 1 to 10 µM in experiment [2]; 0.1 to 1 µM in experiment [3] (24 h); 1 to 10 µM in experiment [4]; 0.1 to 1 µM in experiment [5]; 0.1 to 1 µM in experiment [6]. Also, the AC50 in experiment [3] (24 h) was 0.1 to 1 µM; in experiment [4], 1 to 10 µM.
